{
  "source": "paper PMC6448587",
  "about": "(Biochemistry, 2019)",
  "key": {"CYP3A4 [1]": {"molecular_target": "CYP3A4 (Homo sapiens, UniProt P08684)", "conditions": "human, probe 7-benzyloxy-4-(trifluoromethyl)coumarin (BFC)"}, "Candida albicans CYP51 [2]": {"test_system": "Candida albicans CYP51", "conditions": "read-out: Kd for Candida albicans CYP51; cited from earlier work"}, "Candida albicans CYP51 [3]": {"test_system": "Candida albicans CYP51", "conditions": "read-out: IC50 for Candida albicans CYP51; cited from earlier work"}, "Δ3–22 human CYP3A4 (WT) [4]": {"molecular_target": "T1, Δ3–22 human CYP3A4 (WT) (Homo sapiens, UniProt P08684)"}, "CYP3A4 [5]": {"test_system": "CYP3A4", "conditions": "ref 39 (Godamudunage et al.); cited from earlier work"}, "full-length human CYP3A4 [6]": {"molecular_target": "T2, full-length human CYP3A4 (Homo sapiens, UniProt P08684)"}, "S119A mutant of CYP3A4 [7]": {"molecular_target": "T3, S119A mutant of CYP3A4 (Homo sapiens, UniProt P08684, S119A)"}, "R212A mutant of CYP3A4 [8]": {"molecular_target": "T4, R212A mutant of CYP3A4 (Homo sapiens, UniProt P08684, R212A)"}, "Δ3–22 human CYP3A4 (WT) [9]": {"molecular_target": "T1, Δ3–22 human CYP3A4 (WT)", "experiment": "biochemical"}, "S119A mutant of CYP3A4 [10]": {"molecular_target": "T3, S119A mutant of CYP3A4", "experiment": "biochemical"}, "R212A mutant of CYP3A4 [11]": {"molecular_target": "T4, R212A mutant of CYP3A4", "experiment": "biochemical"}, "full-length human CYP3A4 [12]": {"molecular_target": "T2, full-length human CYP3A4", "remark": "listed apart in the source"}, "[13]": {"conditions": "pH 7.5; cited from earlier work"}},
  "note": "Where two headings read alike, the source gives them in different places.",
  "data": [
    {"smiles": "OC(Cn1cncn1)(Cn1cncn1)c1ccc(F)cc1F", "note": "[Fluconazole]", "values": [
      {"measurement": "IC50", "setting": "CYP3A4 [1]", "value": 21, "unit": "µM"},
      {"measurement": "Kd", "setting": "Candida albicans CYP51 [2]", "value": 0.047, "unit": "µM"},
      {"measurement": "IC50", "setting": "Candida albicans CYP51 [3]", "value": "0.6 to 1.2", "unit": "µM"},
      {"measurement": "Type of spectral changes induced during equilibrium titrations", "setting": "Δ3–22 human CYP3A4 (WT) [4]; WT CYP3A4", "value": "[…]"},
      {"measurement": "IC50", "setting": "CYP3A4 [5]", "value": "[…]"}
    ]},
    {"smiles": "CC(C)(C(=O)c1cccnc1)c1cccnc1", "note": "[Metyrapone]", "values": [
      {"measurement": "IC50", "setting": "full-length human CYP3A4 [6]", "value": "18 ± 2", "unit": "µM"},
      {"measurement": "IC50 estimate relative to that for microsomal CYP3A4 (fold higher)", "setting": "full-length human CYP3A4 [6]; reconstituted system vs microsomal CYP3A4 (ref 21)", "value": 3, "unit": "fold"},
      {"measurement": "Decrease in ΔAmax relative to WT", "setting": "S119A mutant of CYP3A4 [7]; S119A vs WT", "value": 9, "unit": "%"},
      {"measurement": "Increase in Ks relative to WT", "setting": "S119A mutant of CYP3A4 [7]; S119A vs WT", "value": 42, "unit": "%"},
      {"measurement": "Type of spectral changes induced during equilibrium titrations", "setting": "Δ3–22 human CYP3A4 (WT) [4]; WT CYP3A4", "value": "type II"},
      {"measurement": "Decrease in Ks relative to WT", "setting": "R212A mutant of CYP3A4 [8]; R212A vs WT", "value": 33, "unit": "%"},
      {"measurement": "Decrease in ΔAmax relative to WT", "setting": "R212A mutant of CYP3A4 [8]; R212A vs WT", "value": 6, "unit": "%"},
      {"measurement": "Kd", "setting": "Δ3–22 human CYP3A4 (WT) [9]", "value": "2.4 ± 0.1", "unit": "µM"},
      {"measurement": "Kd", "setting": "S119A mutant of CYP3A4 [10]", "value": "3.4 ± 0.1", "unit": "µM"},
      {"measurement": "Kd", "setting": "R212A mutant of CYP3A4 [11]", "value": "1.6 ± 0.1", "unit": "µM"}
    ]},
    {"smiles": "O=S(=O)(O)Cc1ccccc1", "note": "[PMSA, phenylmethanesulfonic acid]", "values": [
      {"measurement": "Spectral changes in the presence of ligand", "setting": "S119A mutant of CYP3A4 [7]", "value": "neither mutant exhibits spectral changes"},
      {"measurement": "Fold lower affinity for CYP3A4 than PMSF", "setting": "Δ3–22 human CYP3A4 (WT) [4]", "value": "~ 6 fold"},
      {"measurement": "Type of spectral changes induced during equilibrium titrations", "setting": "Δ3–22 human CYP3A4 (WT) [4]", "value": "type I"},
      {"measurement": "Kd", "setting": "Δ3–22 human CYP3A4 (WT) [4]; pH 7.4", "value": "15400 ± 2060", "unit": "µM"},
      {"measurement": "Spectral changes in the presence of ligand", "setting": "R212A mutant of CYP3A4 [8]", "value": "neither mutant exhibits spectral changes"},
      {"measurement": "Effect on CYP3A4 activity (inhibitory assays), in words", "setting": "full-length human CYP3A4 [12]", "value": "only negligibly affects CYP3A4 activity"},
      {"measurement": "IC50", "setting": "full-length human CYP3A4 [12]", "value": "> 20000", "unit": "µM"}
    ]},
    {"smiles": "O=S(=O)(F)Cc1ccccc1", "note": "[PMSF, phenylmethylsulfonyl fluoride]", "values": [
      {"measurement": "t1/2 in aqueous solutions", "setting": "[13]", "value": 55, "unit": "min"},
      {"measurement": "High-spin shift relative to WT", "setting": "S119A mutant of CYP3A4 [7]; S119A variant", "value": "~ 30 % of WT"},
      {"measurement": "Fold decrease in binding affinity by mutation", "setting": "S119A mutant of CYP3A4 [7]; S119A vs WT", "value": 4, "unit": "fold"},
      {"measurement": "Type of spectral changes induced during equilibrium titrations", "setting": "Δ3–22 human CYP3A4 (WT) [4]; WT CYP3A4", "value": "type I"},
      {"measurement": "Fold decrease in binding affinity by mutation", "setting": "R212A mutant of CYP3A4 [8]; R212A vs WT", "value": 4, "unit": "fold"}
    ]}
  ]
}
